# Literature values as cited in patent US7601427B2, “Curable composition, cured film, antireflection film, polarizing plate and liquid crystal display” (Fujifilm Corporation, priority 2005, dated 2009).
# Settings: pKa of conjugate acid, aqueous solution, from Kagaku Binran
smiles,measurement,value
"CN(C)CCO [b-17, N,N′-Dimethyl-2-aminoethanol]",pKa,9.5
